Source: patent US20210122763A1, “OGA INHIBITOR COMPOUNDS” (Janssen Pharmaceutica NV, priority 2018, published 2021)

How the values were obtained:
OGA = target: T1, OGA (Mus musculus, UniProt Q9EQQ9); experiment: Ex vivo OGA occupancy assay using [3H]-ligand; format: in vivo; conditions: male NMRI or C57Bl6j mice, p.o., 24 h after administration, forebrain area of brain sections, 3 nM [3H]-ligand, normalised to vehicle; for receptor occupancy at 25 mg/kg: mouse, po, read-out: Occupancy (% +/− sd)
T1 construct: Brains were immediately removed from the skull; from tissue; host or cells: mouse brain (forebrain area of sagittal sections)
T1 sequence (Q9EQQ9 1-916): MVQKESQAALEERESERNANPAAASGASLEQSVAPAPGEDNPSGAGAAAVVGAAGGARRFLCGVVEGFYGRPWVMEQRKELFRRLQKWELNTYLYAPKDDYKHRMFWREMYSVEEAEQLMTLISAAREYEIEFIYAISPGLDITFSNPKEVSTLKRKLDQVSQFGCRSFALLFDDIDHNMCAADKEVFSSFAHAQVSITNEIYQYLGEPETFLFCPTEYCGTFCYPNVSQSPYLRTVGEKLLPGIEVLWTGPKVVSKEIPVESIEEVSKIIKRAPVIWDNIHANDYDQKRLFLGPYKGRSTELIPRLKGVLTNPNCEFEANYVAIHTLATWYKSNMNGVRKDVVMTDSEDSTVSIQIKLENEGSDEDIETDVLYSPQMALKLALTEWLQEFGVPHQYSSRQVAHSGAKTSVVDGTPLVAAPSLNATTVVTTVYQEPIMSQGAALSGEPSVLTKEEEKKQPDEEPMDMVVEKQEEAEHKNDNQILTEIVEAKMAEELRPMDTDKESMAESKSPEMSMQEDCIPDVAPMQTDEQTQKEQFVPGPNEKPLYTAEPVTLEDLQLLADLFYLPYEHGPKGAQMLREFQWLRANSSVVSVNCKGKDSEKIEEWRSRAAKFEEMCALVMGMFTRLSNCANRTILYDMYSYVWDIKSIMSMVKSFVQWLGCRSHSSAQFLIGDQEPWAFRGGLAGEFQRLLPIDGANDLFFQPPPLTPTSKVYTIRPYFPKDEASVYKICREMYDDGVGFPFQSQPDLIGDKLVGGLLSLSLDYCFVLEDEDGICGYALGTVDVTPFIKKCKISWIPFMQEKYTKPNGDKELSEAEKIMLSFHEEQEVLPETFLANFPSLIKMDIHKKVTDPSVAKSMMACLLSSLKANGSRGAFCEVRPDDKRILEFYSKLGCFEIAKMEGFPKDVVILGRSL
Experimental: 3) Ex Vivo OGA Occupancy Assay Using [3H]-Ligand Drug Treatment and Tissue Preparation
Male NMRI or C57Bl6j mice were treated by oral (p.o.) administration of vehicle or compound. Animals were sacrificed 24 hours after administration. Brains were immediately removed from the skull, hemispheres were separated and the right hemisphere, for ex vivo OGA occupancy assay, was rapidly frozen in dry-ice cooled 2-methylbutane (−40° C.). […] sagittal sections were cut using a Leica CM 3050 cryostat-microtome (Leica, Belgium), thaw-mounted on microscope slides (SuperFrost Plus Slides, Thermo Fisher Scientific) and stored at −20° C. until use. After thawing, sections were dried under a cold stream of air. The sections were not washed prior to incubation. The 10 minutes incubation with 3 nM [^3H]-ligand was rigorously controlled. All brain sections (from compound-treated and vehicle-treated animals) were incubated in parallel. After incubation, the excess of [^3H]-ligand was washed off in ice-cold buffer (PBS 1× and 1% BSA) 2 times 10 minutes, followed by a quick dip in distilled water. The sections were then dried under a stream of cold air.
QUANTITATIVE AUTORADIOGRAPHY AND DATA ANALYSIS Radioactivity in the forebrain area of brain slices was measured using a P-imager with M3 vision analysis software (Biospace Lab, Paris). Specific binding was calculated as the difference between total binding and non-specific binding measured in Thiamet-G (10 μM) treated sections. Specific binding in sections from drug treated animals was normalised to binding in sections from vehicle treated mice to calculate percentage of OGA occupancy by the drug.

receptor occupancy at 25 mg/kg (OGA) | Occupancy (% +/− sd) (OGA; 25 mg/kg) | melting point | Structure (SMILES)
97% | – | – | Cc1cc(OC2CCN([C@@H](C)c3nc4nc(C)sc4cc3F)CC2)cc(C)n1 (single isomer, unassigned) [Compound 83]
94.7% | – | – | Cc1cc(OC2CCN([C@H](C)c3nc4c(cc3F)CCO4)CC2)cc(C)n1 (single isomer, unassigned) [Compound 144]
84.3% | 77.67 +/− 10.5% | – | Cc1cc(OC2CCN([C@H](C)c3nc4c(cc3F)OCCO4)CC2)cc(C)n1 (single isomer, unassigned) [Compound 148]
20% | – | 127.82 °C | Cc1ncc(OC2CCN(C(C)c3nc4c(cc3F)CCO4)CC2)cn1 (stereo not drawn) [Compound 95]
